Results from PubChem BioAssay (NCI).
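Dose response: 5 concentrations. Exposure: 48 h. Format: 96-well plates. Endpoint: linear interpolation; highest concentration if not reached. GI50 marks 50% less growth. TGI: total growth inhibition.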

Columns and labels:
Test in all cases: growth of human tumour cells (NCI), 48 h
RXF 393 renal = test system: RXF 393 renal
M14 melanoma = test system: M14 melanoma
OVCAR-3 ovarian = test system: OVCAR-3 ovarian
786-0 renal = test system: 786-0 renal
HCC-2998 colon = test system: HCC-2998 colon
OVCAR-8 ovarian = test system: OVCAR-8 ovarian
UO-31 renal = test system: UO-31 renal
UACC-257 melanoma = test system: UACC-257 melanoma
SK-OV-3 ovarian = test system: SK-OV-3 ovarian
UACC-62 melanoma = test system: UACC-62 melanoma
MOLT-4 leukemia = test system: MOLT-4 leukemia
SF-539 CNS = test system: SF-539 CNS
CAKI-1 renal = test system: CAKI-1 renal
SF-268 CNS = test system: SF-268 CNS
K-562 leukemia = test system: K-562 leukemia
IGROV1 ovarian = test system: IGROV1 ovarian
HOP-62 NSCLC = test system: HOP-62 NSCLC
RPMI-8226 leukemia = test system: RPMI-8226 leukemia
SNB-75 CNS = test system: SNB-75 CNS
BT-549 breast = test system: BT-549 breast
SF-295 CNS = test system: SF-295 CNS
SNB-19 CNS = test system: SNB-19 CNS
ACHN renal = test system: ACHN renal
HCT-116 colon = test system: HCT-116 colon
KM12 colon = test system: KM12 colon
MDA-MB-435 = test system: MDA-MB-435
OVCAR-5 ovarian = test system: OVCAR-5 ovarian
SN12C renal = test system: SN12C renal
T-47D breast = test system: T-47D breast
SR leukemia = test system: SR leukemia
NCI-H460 lung = test system: NCI-H460 lung
NCI-H522 lung = test system: NCI-H522 lung
DU-145 prostate = test system: DU-145 prostate
A498 renal = test system: A498 renal
MDA-MB-231 breast = test system: MDA-MB-231 breast
CCRF-CEM leukemia = test system: CCRF-CEM leukemia
SK-MEL-5 melanoma = test system: SK-MEL-5 melanoma
HT29 colon = test system: HT29 colon
HCT-15 colon = test system: HCT-15 colon
NCI/ADR-RES ovarian = test system: NCI/ADR-RES ovarian
HOP-92 NSCLC = test system: HOP-92 NSCLC
COLO 205 colon = test system: COLO 205 colon
LOX IMVI melanoma = test system: LOX IMVI melanoma
U251 CNS = test system: U251 CNS
NCI-H226 lung = test system: NCI-H226 lung
OVCAR-4 ovarian = test system: OVCAR-4 ovarian
HL-60(TB) leukemia = test system: HL-60(TB) leukemia
EKVX NSCLC = test system: EKVX NSCLC
PC-3 prostate = test system: PC-3 prostate
A549 NSCLC = test system: A549 NSCLC
TK-10 renal = test system: TK-10 renal
NCI-H23 lung = test system: NCI-H23 lung
SK-MEL-2 melanoma = test system: SK-MEL-2 melanoma
HS 578T breast = test system: HS 578T breast
MCF7 breast = test system: MCF7 breast

N#C/C(=C\c1ccc(-c2ccc(Cl)cc2)o1)C(=O)Nc1ncc(Cc2ccc(Cl)cc2)s1
GI50 (RXF 393 renal): 2.32 µM | TGI (RXF 393 renal): 6.85 µM | GI50 (M14 melanoma): 2.04 µM | TGI (M14 melanoma): 6.08 µM | GI50 (OVCAR-3 ovarian): 1.41 µM | TGI (OVCAR-3 ovarian): 3.14 µM | GI50 (786-0 renal): 1.77 µM | TGI (786-0 renal): 3.47 µM | GI50 (HCC-2998 colon): 3.63 µM | TGI (HCC-2998 colon): > 100 µM | GI50 (OVCAR-8 ovarian): 1.81 µM | TGI (OVCAR-8 ovarian): 5.76 µM | GI50 (UO-31 renal): 2.48 µM | TGI (UO-31 renal): 7.87 µM | GI50 (UACC-257 melanoma): 4.06 µM | TGI (UACC-257 melanoma): > 100 µM | GI50 (SK-OV-3 ovarian): 3.24 µM | TGI (SK-OV-3 ovarian): 9.52 µM | GI50 (UACC-62 melanoma): 2.11 µM | TGI (UACC-62 melanoma): 6.57 µM | GI50 (MOLT-4 leukemia): 3.75 µM | TGI (MOLT-4 leukemia): > 100 µM | GI50 (SF-539 CNS): 1.66 µM | TGI (SF-539 CNS): 3.84 µM | GI50 (CAKI-1 renal): 1.63 µM | TGI (CAKI-1 renal): 3.46 µM | GI50 (SF-268 CNS): 2.68 µM | TGI (SF-268 CNS): 19.8 µM | GI50 (K-562 leukemia): 3.92 µM | TGI (K-562 leukemia): > 100 µM | GI50 (IGROV1 ovarian): 2.2 µM | TGI (IGROV1 ovarian): 5.99 µM | GI50 (HOP-62 NSCLC): 2.26 µM | TGI (HOP-62 NSCLC): 6.33 µM | GI50 (RPMI-8226 leukemia): 4.45 µM | TGI (RPMI-8226 leukemia): > 100 µM | GI50 (SNB-75 CNS): 1.38 µM | TGI (SNB-75 CNS): 3.89 µM | GI50 (BT-549 breast): 2.34 µM | TGI (BT-549 breast): 10.4 µM | GI50 (SF-295 CNS): 2.84 µM | TGI (SF-295 CNS): 8.73 µM | GI50 (SNB-19 CNS): 2.77 µM | TGI (SNB-19 CNS): 12.8 µM | GI50 (ACHN renal): 1.59 µM | TGI (ACHN renal): 3.43 µM | GI50 (HCT-116 colon): 1.41 µM | TGI (HCT-116 colon): 3.51 µM | GI50 (KM12 colon): 1.83 µM | TGI (KM12 colon): 6.56 µM | GI50 (MDA-MB-435): 2.65 µM | TGI (MDA-MB-435): > 100 µM | GI50 (OVCAR-5 ovarian): 3.73 µM | TGI (OVCAR-5 ovarian): > 100 µM | GI50 (SN12C renal): 1.28 µM | TGI (SN12C renal): 3.32 µM | GI50 (T-47D breast): 1.91 µM | TGI (T-47D breast): 5.2 µM | GI50 (SR leukemia): 0.772 µM | TGI (SR leukemia): 6.48 µM | GI50 (NCI-H460 lung): 0.983 µM | TGI (NCI-H460 lung): 2.46 µM | GI50 (NCI-H522 lung): 1.94 µM | TGI (NCI-H522 lung): 4.86 µM | GI50 (DU-145 prostate): 2.53 µM | TGI (DU-145 prostate): 13.5 µM | GI50 (A498 renal): 1.58 µM | TGI (A498 renal): 4.19 µM | GI50 (MDA-MB-231 breast): 1.64 µM | TGI (MDA-MB-231 breast): 4.4 µM | GI50 (CCRF-CEM leukemia): 2.21 µM | TGI (CCRF-CEM leukemia): > 100 µM | GI50 (SK-MEL-5 melanoma): 2.51 µM | TGI (SK-MEL-5 melanoma): 7.41 µM | GI50 (HT29 colon): 3.42 µM | TGI (HT29 colon): > 100 µM | GI50 (HCT-15 colon): 2.3 µM | TGI (HCT-15 colon): > 100 µM | GI50 (NCI/ADR-RES ovarian): 1.87 µM | TGI (NCI/ADR-RES ovarian): 6.31 µM | GI50 (HOP-92 NSCLC): 1.97 µM | TGI (HOP-92 NSCLC): 7.11 µM | GI50 (COLO 205 colon): 2.45 µM | TGI (COLO 205 colon): 7.39 µM | GI50 (LOX IMVI melanoma): 2.62 µM | TGI (LOX IMVI melanoma): 7.55 µM | GI50 (U251 CNS): 1.09 µM | TGI (U251 CNS): 2.43 µM | GI50 (NCI-H226 lung): 2.08 µM | TGI (NCI-H226 lung): 5.41 µM | GI50 (OVCAR-4 ovarian): 0.422 µM | TGI (OVCAR-4 ovarian): 2.01 µM | GI50 (HL-60(TB) leukemia): > 100 µM | TGI (HL-60(TB) leukemia): > 100 µM | GI50 (EKVX NSCLC): 2 µM | TGI (EKVX NSCLC): 5.16 µM | GI50 (PC-3 prostate): 1.5 µM | TGI (PC-3 prostate): 3.67 µM | GI50 (A549 NSCLC): 1.33 µM | TGI (A549 NSCLC): 3.05 µM | GI50 (TK-10 renal): 2 µM | TGI (TK-10 renal): 3.71 µM | GI50 (NCI-H23 lung): 1.82 µM | TGI (NCI-H23 lung): 4.17 µM | GI50 (SK-MEL-2 melanoma): 3.26 µM | TGI (SK-MEL-2 melanoma): 12.9 µM | GI50 (HS 578T breast): 1.59 µM | TGI (HS 578T breast): 7.8 µM | GI50 (MCF7 breast): 2.51 µM | TGI (MCF7 breast): > 100 µM
